From US11352391B2, “Compositions for inducing urinary voiding and defecation” (Dignify Therapeutics, LLC, priority 2017, dated 2022)
Where a SMILES comes first, the peptide text is derived from it.

How the values were obtained:
[1] = Pharmacokinetics in rat plasma after cassette IV bolus dosing; conditions: Sprague-Dawley, in vivo, iv
Method: The concentrations of compounds (SEQ ID NOS: 1-11) were measured in rat plasma after intravenous (IV) bolus dosing to determine pharmacokinetic profiles of individual compounds.
Animal preparation: In vivo studies were performed in anesthetized adult Sprague Dawley rats. Rats were anesthetized with urethane (1.2-1.4 g/kg subcutaneous injection). Surgical procedures were then performed with the addition of isoflurane anesthesia (0.05-1.5% in 02) as needed. A venous cannula was inserted into the jugular vein for intravenous (IV) administration of compounds.
In vivo dosing and plasma sampling: Compounds were divided into two groups (soluble and insoluble). Each group was dosed as a cassette in which four compounds (100 μg/kg each compound) were combined into a single IV bolus injection to anesthetized adult Sprague-Dawley rats. Soluble compounds were dissolved in saline. Insoluble compounds were dissolved in a 10% ethanol/saline solution. Rats were cassette dosed based on weight using 0.1 mg/mL solutions of individual compounds. Blood samples (700 μL) were collected using a carotid artery cannula into EDTA tubes containing ascorbic acid (final concentration 1%), and plasma was isolated.
Bioanalytical assay: A reversed-phase HPLC with Turbo Ion Spray MS/MS detection method was developed for bioanalysis. Mass spec transition and settings were individually optimized for each compound and then compounds were cassetted for HPLC method development and optimization. [^13C9; ^15N] [Lys5,MeLeu9,Nle10]-NKA(4-10) was used as an internal standard (IS). Analyte-to-IS peak area ratios for individual compounds were used to create linear calibration curves (1-20 ng/mL) using 1/×2 weighted least-squares regression analysis for evaluation of method linearity, precision and accuracy. For plasma concentration measurements, plasma samples were spiked with IS, processed by extraction, and analyzed using LC-MS/MS. Positive (M+H)+ ions for individual compounds and IS were monitored in MRM mode.

[2] = system: anesthetized acute spinal cord injured (aSCI) rat; experiment: Isovolumetric bladder pressure in anesthetized acute spinal cord injured (aSCI) rats; assay type: in vivo
Method: (§1) Methods: Studies were conducted in acutely spinal transected rats under isovolumetric bladder pressure recording conditions. Acute spinal cord injury (aSCI) is an in vivo model of isolated bladder smooth muscle contraction without reinforcement from micturition reflexes (i.e., myogenic, not neurogenic, contraction). Thus, it can be viewed as a model of severe bladder underactivity.
Animal preparation: In vivo studies were performed in anesthetized, acutely spinalized (T8-10 level) rats. Rats were anesthetized with urethane (1.2-1.4 g/kg subcutaneous injection). Surgical procedures were then performed with the addition of isoflurane anesthesia (0.05-1.5% in 02) as needed.
For aSCI, the skin and muscle on the dorsal side at the level of the lower thoracic vertebrae were incised and the spinal cord was carefully exposed by a laminectomy and transected at the T8-T10 spinal level. Gelfoam was placed at the incision site and the muscle and skin overlying the vertebrae were closed with wound clips. The spinal cord was cut at least 60 min before starting the experimental protocol. […]
(§2) Data analysis: Data were examined qualitatively and quantitatively. The mean, standard deviation and standard error of the mean were calculated using MICROSOFT EXCEL.

[3] = system: anesthetized acute spinal cord injured (aSCI) rat; experiment: Colorectal (bowel) pressure manometry in anesthetized aSCI rats; assay type: in vivo; conditions: doses >10 μg/kg SC
Method: as §1
Animal preparation: In vivo studies were performed in anesthetized, acutely spinalized (T8-10 level) rats. Rats were anesthetized with urethane (1.2-1.4 g/kg subcutaneous injection). Surgical procedures were then performed with the addition of isoflurane anesthesia (0.05-1.5% in 02) as needed. […]
Bowel Contractility: Colorectal pressure manometry was performed via a latex balloon catheter (length 3-5 cm) inserted (˜4 cm) into the distal rectal/colon region. […] This allowed drug induced changes in colorectal pressure to be monitored. Parameters measured include peak colorectal pressure response, duration of time above baseline activity (in the 1st 5 min after drug administration), area under the curve (measured during the 1st 5 min after drug administration) and the number of contractile events after vehicle and drug administration. […]
as §2

anesthetized dog = experiment: Urine leakage from the bladder in anesthetized dog; assay type: in vivo; conditions: IV 3 μg/kg and SC 30 μg/kg, data not shown
Method: Animal preparation: Naïve beagle dogs were fasted for 12-24 hours and received a warm water enema the night prior to, and the morning of, the experiment to clear the rectum and lower colon of feces. The day of the experiment, a 20 gauge IV catheter (Terumo Surflo) was placed in the cephalic vein for anesthetic induction (propofol, 10 mg/kg; IV) and delivery of IV fluids (5-10 ml/kg/hr) and compounds. The sedated dog was intubated with a 5-6 Fr tracheal tube and was maintained on 2-3% isoflurane via a ventilator (15-25 breaths/min; tidal volume […]) for the remainder of the experiment.

half-life [1]: 12 to 72 s
level at 10 min ([1]; 100 ug/kg): < 1 ng/mL
SMILES: CCCC[C@H](NC(=O)[C@H](CC(C)C)N(C)C(=O)CNC(=O)[C@@H](NC(=O)[C@H](Cc1ccccc1)NC(=O)[C@H](CCCNC(=N)N)NC(=O)[C@@H](N)CC(=O)O)C(C)C)C(N)=O [Compound B, Asp-Arg-Phe-Val-Gly-(NMe-Leu)-Nle-NH2] (HELM PEPTIDE1{D.R.F.V.G.[meL].[Nle].[am]}$$$$V2.0; N-terminus assumed)
onset of increase in bladder contraction pressure ([2]; SC, anesthetized aSCI rat): < 2 min
bladder activity (peak bladder pressure) ([2]; doses >10 μg/kg SC, aSCI rat): measurable increases in bladder activity
bowel activity (bowel pressure AUC, first 5 min) [3]: measurable increases in bowel activity
urine leakage / induction of voiding (anesthetized dog): leakage of urine from the bladder
